Test: Strength and degradation profile of tigecycline 20 mg/mL bulk solutions by reversed phase HPLC (effect of temperature, time, pH, dissolved oxygen; Runs A to O)
Format: physicochemical
Method: The contents of the sample vials are dissolved in diluent. The sample solution is diluted, if necessary, and chromatographed on a reversed phase column using gradient elution. Impurities are determined by comparing the impurity peak areas in the sample preparation chromatogram to the average area of tigecycline peaks in the standard preparation chromatograms obtained concomitantly.
Chromatographic Column—Length about 15 cm, inside diameter about 4.6 mm, packed with Inertsil ODS2, 5 μm size particles or equivalent.
Detector—Ultraviolet spectrophotometric detector capable of operating at 248 nm with a sensitivity of about 0.5 absorbance units full scale.
The results of additional studies to investigate the effect of processing parameters such as temperature, time, and dissolved oxygen content on the purity profile of tigecycline solutions using the following materials, methods and procedures are presented in Tables A to O.
The experiments were run in plastic glove bags under normal laboratory light conditions. Plastic glove boxes will be used to control the headspace of the beakers. The batch size was 200 mL. • 1. Prepare the glove bag with a mixture of nitrogen and air to achieve an oxygen level in the solution as per the design. • 2. Place the jacketed beaker on the magnetic stirrer. Connect it to the cooler. Set the cooler to the desired set point. • 3. Add 200 mL of SWFI in to the beaker. Allow equilibrating. Measure the temperature and oxygen content. When it reaches the desired condition, add accurately weighed API and mix until dissolved. If necessary use spatula to aid dissolution. For pH adjustments, use 4 mL of either 0.1N NaOH or 0.1N HCl and 196 mL of WFI for manufacture. • 4. After complete dissolution, Transfer about 5.5 mL of Solution in vials and stopper them. These vials will be stoppered at the appropriate headspace conditions. Place the vials in appropriate temperature conditions. • 5. Sample the vials at 1, 4, 8, 10, 12 and 24 hours. Send the samples for analysis. Freeze the 10, 12 and 24 samples at −20° C. for analysis the following day. • 6. Measure pH and record color of the solution at each time point. Results
The 1-hour samples were taken directly from the beakers. Samples for later time points were collected in stoppered vials processed in the atmosphere of the bag in order to simulate the headspace conditions then placed in water baths or refrigerator to maintain there respective temperature conditions. This was done to maintain safety in the lab. Disposable plastic glove bags require constant flow of a mixture of nitrogen and air to maintain headspace oxygen level that will result in the desired dissolved oxygen (DO) content in the sample. The pH of samples was measured at each sample points.
Strength and degradation profile was analyzed by HPLC as described above. […] Degradation was slightly higher at higher temperature condition.

[1] = Run #N, 8° C., pH 8.2, Oxygen = 0.1 mg/L, 4 Hrs
[2] = Run #N, 8° C., pH 8.2, Oxygen = 0.1 mg/L, 8 Hrs
[3] = Run #N, 8° C., pH 8.2, Oxygen = 0.1 mg/L, 12 Hrs
[4] = Run #N, 8° C., pH 8.2, Oxygen = 0.1 mg/L, 24 Hrs
[5] = Run #O, 20 mg/mL, 5° C., Oxygen = 0.1 mg/mL, hours 1,4,8,12,24 at r7-r11, time 1 h
[6] = Run #O, 20 mg/mL, 5° C., Oxygen = 0.1 mg/mL, hours 1,4,8,12,24 at r7-r11, time 4 h
[7] = Run #O, 20 mg/mL, 5° C., Oxygen = 0.1 mg/mL, hours 1,4,8,12,24 at r7-r11, time 8 h
[8] = Run #O, 20 mg/mL, 5° C., Oxygen = 0.1 mg/mL, hours 1,4,8,12,24 at r7-r11, time 12 h
[9] = Run #O, 20 mg/mL, 5° C., Oxygen = 0.1 mg/mL, hours 1,4,8,12,24 at r7-r11, time 24 h

CN(C)c1cc(NC(=O)CNC(C)(C)C)c(O)c2c1C[C@H]1C[C@H]3[C@H](N(C)C)C(O)=C(C(N)=O)C(=O)[C@@]3(O)C(O)=C1C2=O [Tigecycline]
RRT 0.78 MW = 557 [1]: BRL (BRL means below reporting limit (meaning less than 0.05% of tigecycline peak))
RRT 1.12 [1]: BRL (BRL means below reporting limit (meaning less than 0.05% of tigecycline peak))
RRT 1.45 [1]: 0.07%
RRT 1.58 [1]: BRL (BRL means below reporting limit (meaning less than 0.05% of tigecycline peak))
RRT 1.64 Mino [1]: 0.10%
RRT 1.67 MW = 556 [1]: BRL (BRL means below reporting limit (meaning less than 0.05% of tigecycline peak))
RRT 1.85 MW = 597 [1]: 0.09%
Strength [1]: 19.378 mg/mL
Total [1]: 0.54%
RRT 0.12 MW = 633 [2]: BRL (BRL means below reporting limit (meaning less than 0.05% of tigecycline peak))
RRT 0.23 MW = 572 [2]: BRL (BRL means below reporting limit (meaning less than 0.05% of tigecycline peak))
RRT 0.50 MW = 601 [2]: BRL (BRL means below reporting limit (meaning less than 0.05% of tigecycline peak))
RRT 0.55 MW = 583 [2]: BRL (BRL means below reporting limit (meaning less than 0.05% of tigecycline peak))
RRT 0.58 [2]: 0.07%
RRT 0.64 9-Amino [2]: BRL (BRL means below reporting limit (meaning less than 0.05% of tigecycline peak))
RRT 0.74 Epimer [2]: 0.22%
RRT 0.76 [2]: BRL (BRL means below reporting limit (meaning less than 0.05% of tigecycline peak))
RRT 0.78 MW = 557 [2]: BRL (BRL means below reporting limit (meaning less than 0.05% of tigecycline peak))
RRT 1.12 [2]: BRL (BRL means below reporting limit (meaning less than 0.05% of tigecycline peak))
RRT 1.45 [2]: 0.08%
RRT 1.58 [2]: BRL (BRL means below reporting limit (meaning less than 0.05% of tigecycline peak))
RRT 1.64 Mino [2]: 0.08%
RRT 1.67 MW = 556 [2]: BRL (BRL means below reporting limit (meaning less than 0.05% of tigecycline peak))
RRT 1.85 MW = 597 [2]: 0.08%
Strength [2]: 19.275 mg/mL
Total [2]: 0.53%
RRT 0.12 MW = 633 [3]: BRL (BRL means below reporting limit (meaning less than 0.05% of tigecycline peak))
RRT 0.23 MW = 572 [3]: BRL (BRL means below reporting limit (meaning less than 0.05% of tigecycline peak))
RRT 0.50 MW = 601 [3]: BRL (BRL means below reporting limit (meaning less than 0.05% of tigecycline peak))
RRT 0.55 MW = 583 [3]: 0.07%
RRT 0.58 [3]: 0.06%
RRT 0.64 9-Amino [3]: BRL (BRL means below reporting limit (meaning less than 0.05% of tigecycline peak))
RRT 0.74 Epimer [3]: 0.31%
RRT 0.76 [3]: BRL (BRL means below reporting limit (meaning less than 0.05% of tigecycline peak))
RRT 0.78 MW = 557 [3]: BRL (BRL means below reporting limit (meaning less than 0.05% of tigecycline peak))
RRT 1.12 [3]: BRL (BRL means below reporting limit (meaning less than 0.05% of tigecycline peak))
RRT 1.45 [3]: 0.08%
RRT 1.58 [3]: 0.05%
RRT 1.64 Mino [3]: 0.11%
RRT 1.67 MW = 556 [3]: 0.07%
RRT 1.85 MW = 597 [3]: 0.08%
Strength [3]: 19.382 mg/mL
Total [3]: 0.83%
RRT 0.12 MW = 633 [4]: BRL (BRL means below reporting limit (meaning less than 0.05% of tigecycline peak))
RRT 0.23 MW = 572 [4]: BRL (BRL means below reporting limit (meaning less than 0.05% of tigecycline peak))
RRT 0.50 MW = 601 [4]: BRL (BRL means below reporting limit (meaning less than 0.05% of tigecycline peak))
RRT 0.55 MW = 583 [4]: BRL (BRL means below reporting limit (meaning less than 0.05% of tigecycline peak))
RRT 0.58 [4]: 0.06%
RRT 0.64 9-Amino [4]: BRL (BRL means below reporting limit (meaning less than 0.05% of tigecycline peak))
RRT 0.74 Epimer [4]: 0.31%
RRT 0.76 [4]: BRL (BRL means below reporting limit (meaning less than 0.05% of tigecycline peak))
RRT 0.78 MW = 557 [4]: BRL (BRL means below reporting limit (meaning less than 0.05% of tigecycline peak))
RRT 1.12 [4]: BRL (BRL means below reporting limit (meaning less than 0.05% of tigecycline peak))
RRT 1.45 [4]: 0.10%
RRT 1.58 [4]: 0.05%
RRT 1.64 Mino [4]: 0.13%
RRT 1.67 MW = 556 [4]: 0.07%
RRT 1.85 MW = 597 [4]: 0.11%
Strength [4]: 19.211 mg/mL
Total [4]: 0.82%
RRT 0.74 Epimer [5]: 0.21%
RRT 1.85 MW = 597 [5]: 0.08%
Strength [5]: 18.777 mg/mL
RRT 0.58 [6]: 0.09%
RRT 0.74 Epimer [6]: 0.23%
Strength [6]: 18.971 mg/mL
Total [6]: 0.53%
RRT 1.45 [7]: 0.09%
RRT 1.64 Mino [7]: 0.06%
RRT 1.85 MW = 597 [7]: 0.09%
Strength [7]: 19.051 mg/mL
RRT 0.58 [8]: 0.07%
RRT 0.74 Epimer [8]: 0.24%
RRT 1.45 [8]: 0.07%
RRT 1.64 Mino [8]: 0.08%
RRT 1.85 MW = 597 [8]: 0.10%
Strength [8]: 18.722 mg/mL
Total [8]: 0.55%
RRT 0.74 Epimer [9]: 0.25%
RRT 1.64 Mino [9]: 0.11%
RRT 1.85 MW = 597 [9]: 0.06%
Strength [9]: 19.238 mg/mL
Total [9]: 0.56%
effect of pH on the degradation of tigecycline bulk solution (range of pH (7.7-8.2) studied): did not have any significant effect
degradation (when oxygen is removed from the process and the temperature is controlled): very little degradation is seen

— US20070026080A1, “Manufacturing process for tigecycline” (Wyeth, priority 2005, published 2007)
